Values of other authors, collected in US20080213381A1, “Oral Drug Delivery System” (PHARMACEUTICAL INDUSTRIES LIMITED, priority 2005, published 2008).

[1] = oral, conventional immediate release dosage form of venlafaxine hydrochloride

COc1ccc(C(CN(C)C)C2(O)CCCCC2)cc1 (stereo not drawn) [venlafaxine]
time after oral administration at which plasma venlafaxine level is sub-therapeutic (conventional immediate release dosage form): around 12 hours
time at which peak plasma concentration of the active metabolite is achieved [1]: 4 h
time at which peak plasma concentration of venlafaxine is achieved [1]: 2 h
